Here are results for one molecule from ChEMBL document CHEMBL1926625, “Identification of benzoxazin-3-one derivatives as novel, potent, and selective nonsteroidal mineralocorticoid receptor antagonists” (J Med Chem, 2011).

Data set [1] can be described thus: Volume of distribution at steady state in Sprague-Dawley rat at 3 mg/kg, iv and 10 mg/kg, po. It counts as ADME, organism-based. Conditions: in vivo, read-out: Vdss.
Data set [2] is described as follows: Bioavailability in Sprague-Dawley rat at 3 mg/kg, iv and 10 mg/kg, po. The format is ADME, organism-based. Conditions: in vivo.
For another data set, the target named is T1, Progesterone receptor (Homo sapiens, UniProt P06401).
T1 sequence (P06401 whole entry): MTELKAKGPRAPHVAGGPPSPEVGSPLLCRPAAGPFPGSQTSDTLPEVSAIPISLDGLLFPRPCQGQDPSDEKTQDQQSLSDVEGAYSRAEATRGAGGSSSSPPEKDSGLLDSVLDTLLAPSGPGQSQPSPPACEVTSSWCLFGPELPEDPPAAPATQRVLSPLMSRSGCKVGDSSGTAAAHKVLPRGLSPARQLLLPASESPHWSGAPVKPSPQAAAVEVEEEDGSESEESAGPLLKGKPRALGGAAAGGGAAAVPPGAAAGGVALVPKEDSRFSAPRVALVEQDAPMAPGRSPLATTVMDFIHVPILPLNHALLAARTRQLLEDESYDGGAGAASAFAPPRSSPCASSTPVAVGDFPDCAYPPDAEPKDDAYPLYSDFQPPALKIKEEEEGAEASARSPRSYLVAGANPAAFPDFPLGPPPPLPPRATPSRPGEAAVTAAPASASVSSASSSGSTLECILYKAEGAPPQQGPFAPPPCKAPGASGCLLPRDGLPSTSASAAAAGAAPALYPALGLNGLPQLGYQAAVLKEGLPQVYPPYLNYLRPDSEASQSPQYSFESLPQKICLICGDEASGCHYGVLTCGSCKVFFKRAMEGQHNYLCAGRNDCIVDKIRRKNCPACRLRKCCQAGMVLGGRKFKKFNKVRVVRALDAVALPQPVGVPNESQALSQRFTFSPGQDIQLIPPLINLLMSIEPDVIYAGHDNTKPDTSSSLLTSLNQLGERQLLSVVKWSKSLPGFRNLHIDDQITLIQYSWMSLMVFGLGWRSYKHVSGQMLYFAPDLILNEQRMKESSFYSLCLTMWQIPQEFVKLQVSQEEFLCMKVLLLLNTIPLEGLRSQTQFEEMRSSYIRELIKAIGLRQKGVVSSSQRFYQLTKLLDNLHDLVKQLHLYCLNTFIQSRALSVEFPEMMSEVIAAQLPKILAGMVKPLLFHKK
Nature of the data set: Displacement of [3H]progesterone from PR. For orientation: Loss of bound radioactivity is the signal in a displacement assay; it reports binding, not function.

Data set [3] can be described thus: Clearance in Sprague-Dawley rat at 3 mg/kg, iv and 10 mg/kg, po. It counts as ADME, organism-based. Conditions: in vivo.

For `Cc1cc(F)ccc1-n1nc(C(F)(F)F)cc1-c1ccc2c(c1)NC(=O)CO2`, the Vd in data set [1] is 4.63 L/kg. For the same molecule, the bioavailability (in general, the share of a dose that reaches the circulation, judged against a reference dose that is usually intravenous) in data set [2] was 50.7%. Also, the IC50 (commonly the concentration needed to halve the response being measured) at Progesterone receptor stood at 1.9 µM. For the same molecule, the clearance in data set [3] was 22.1 mL/min/kg.
